Experimental data reported in patent US11098082B2, “Antigenic peptides and uses thereof for diagnosing and treating autism” (The Regents of the University of California, priority 2015, dated 2021).

What was measured:
Assay type in all cases: binding, human
maternal autoantibodies = assay: validation peptide microarray incubated with maternal plasma samples (ASD vs TD mothers); details: for binding by autoantibodies, ASD samples compared with TD samples: in words; for Number (%) Positive In ASD / Number Positive In ASD (n = 46): plasma of mothers of children with ASD, n = 46; for Number Positive In ASD (n = 46): peptide called positive (reactive) per sample; for Number (%) Positive In TD / Number Positive In TD (n = 21): plasma of mothers of typically developing children, n = 21
[1] = system: autoantibodies present in a maternal sample; assay: STIP1 peptide ELISA with maternal plasma samples; details: plasma 1:400; for Final (absorbance, average minus blank): 450 nm; for Average (absorbance): 450 nm with 490 nm reference, duplicate
Text: The peptides of Table 2 were synthesized with a linker and biotinylated. In particular, each biotinylated peptide was biotin-SGSS-peptide-DKP with SGSS (SEQ ID NO: 121) as the spacer and a diketopiperazine (DKP) group at the C-terminus of the peptide. Pierce® NeutrAvidin® protein coated microwell plates (Thermo Scientific) were washed with PBST and excess buffer was removed from the wells. The biotinylated peptides were reconstituted in pure solvent (e.g., DMSO or DMF) or a solvent/water mixture. The reconstituted peptide was diluted […] in ultra pure water to a final concentration of 5 μg/ml. 100 μl of the diluted biotinylated peptide was dispensed into the wells and incubated for 1 hour at room temperature or overnight at 4° C. on a slow rocker. Reference wells were left uncoated but filled with buffer. Nonspecific binding sites were blocked by incubation with 200 μl of a 5% Pierce® Superblock™ PBS solution for 2 hours at room temperature. Subsequently, the plates were washed six times with PBST using an automated plate washer.
The following method adapted from Sanchez et al. (Cancer Chemother. Pharmacol., 66: 919-925 (2010)) was used to detect maternal antibodies against one or more of the peptides of the ELISA-based assay described above: Maternal plasma samples were obtained including samples predetermined to be reactive to the full-length antigens of the peptides in the assay. The test samples were diluted in sample diluent (e.g., 2.5% Pierce® Superblock™ in PBST) and 100 μl of each sample was added to the wells of the assay plate. All samples were analyzed in duplicate in both peptide-coated and uncoated wells. The diluted samples were incubated for 1 hour at room temperature. The plates were then washed six times with PBST. The labeled secondary antibody solution (e.g., horseradish peroxidase-conjugated goat anti-human IgG, Invitrogen) was added to the wells and incubated for 30 minutes at room temperature. The plates were again washed eight times with PBST. The plates were then washed with PBS without Tween twice. The BD Opt EIA™ substrate (BD Biosciences Pharmingen, San Diego, Calif.) was added to the wells and incubated at room temperature for 10 minutes. The STOP solution (2N H2SO4) was added and the plate was read at 450 nm using a reference filter at 490 nm.
In particular, four maternal plasma samples were tested for their reactivity to a STIP1 peptide having the amino acid sequence PPPPPPKKETKPEPM (SEQ ID NO:22) using the following peptide ELISA protocol: • 1. Bring all reagents to room temperature. • 2. Peptides were diluted in ultra pure water from peptide stock (1 mg/mL) to a final concentration of 5 μg/mL. • 3. Add 100 μl of each peptide to corresponding wells on 96-well NeutrAvidin coated plate. • 4. Incubate plate for 1 hour at room temperature. • 5. Wash plate six times with PBS with 0.05% Tween. • 6. Add 200 μl of 5% Superblock to each well and incubated for 2 hours at room temperature. • 7. Wash plate six times with PBS with 0.05% Tween. • 8. Dilute maternal plasma samples 1:400 in sample buffer (2.5% Superblock in PBS with 0.05% Tween). • 9. Add 100 μl of diluted plasma samples to wells and incubate for 1 hour at room temperature. • 10. Wash plate six times with PBS with 0.05% Tween. • 11. Dilute Goat Anti-Human antibody 1:2,500 in PBS with 0.05% Tween. • 12. Add 100 μl of diluted Goat Anti-Human antibody to wells and incubate for 30 minutes at room temperature. • 13. Wash plate eight times with PBS with 0.05% Tween and two times with PBS Neat. • 14. Add 100 μl of BD Opt EIA substrate to each well. • 15. Incubate plate in the dark for 10 minutes at room temperature. • 16. Add 50 μl of H2SO4 to each well to stop chemical reaction. • 17. Read plate on reduced setting on spectrophotometer at 450 nm with 490 nm reference.
The samples were run in duplicate and the absorbance values were averaged. […]

[2] = system: autoantibodies present in a maternal sample; assay: ELISA with the full-length STIP1 polypeptide; details: Sample No. 1190
[3] = Sample No. 99 (Medium Reactivity)
[4] = Sample No. 1190 (Highly Reactive)
[5] = Sample No. 1887 (Low Reactivity)

Substance | binding by autoantibodies, ASD samples compared with TD samples (maternal autoantibodies) | Number (%) Positive In ASD (maternal autoantibodies) [%] | Number Positive In ASD (n = 46) (maternal autoantibodies) | Number (%) Positive In TD (maternal autoantibodies) [%] | Number Positive In TD (n = 21) (maternal autoantibodies) | also measured
DCIIIVVSNPVDILT [SEQ ID NO: 12] | only bound by autoantibodies when the microarrays were incubated with plasma samples obtained from mothers whose children had a diagnosis of ASD | 11 | 5 | 0 | 0 | 
ETVEFDVVEGEKGAE [SEQ ID NO: 32] |  | 11 | 5 | 5 | 1 | 
HNSSLEYNIFEGMEC [SEQ ID NO: 55] |  | 35 | 16 | 19 | 4 | 
IAPVAEEEATVPNNKIT [SEQ ID NO: 66] | only bound by autoantibodies when the microarrays were incubated with plasma samples obtained from mothers whose children had a diagnosis of ASD | 4 | 2 | 0 | 0 | 
KTISAKTHNSSLEYN [SEQ ID NO: 54] | only bound by autoantibodies when the microarrays were incubated with plasma samples obtained from mothers whose children had a diagnosis of ASD | 2 | 1 | 0 | 0 | 
LQTPKIVADKDYSVTAN [SEQ ID NO: 71] | only bound by autoantibodies when the microarrays were incubated with plasma samples obtained from mothers whose children had a diagnosis of ASD | 2 | 1 | 0 | 0 | 
MAERKQSGKAAEDEE [SEQ ID NO: 45] |  | 22 | 10 | 5 | 1 | 
MDLNDTFPEYKETIE (MDLNDTFPEYKETTE) [SEQ ID NO: 27] |  | 17 | 8 | 5 | 1 | 
PAAPPAAPALSAADT [SEQ ID NO: 28] |  | 41 | 19 | 29 | 6 | 
PPPPPPKKETKPEPM [SEQ ID NO: 22] |  |  |  |  |  | Final (absorbance, average minus blank) [1, 3]: 0.483; Average (absorbance) [1, 3]: 1.482; Final (absorbance, average minus blank) ([1]; Sample No. 142 (Negative)): 0.093; Average (absorbance) ([1]; Sample No. 142 (Negative)): 1.295; Final (absorbance, average minus blank) [1, 4]: 2.045; Average (absorbance) [1, 4]: 2.442; Final (absorbance, average minus blank) [1, 5]: 0.129; Average (absorbance) [1, 5]: 2.101
PVAEEEATVPNNKIT [SEQ ID NO: 9] | only bound by autoantibodies when the microarrays were incubated with plasma samples obtained from mothers whose children had a diagnosis of ASD | 7 | 3 | 0 | 0 | 
TPKIVADKDYSVTAN [SEQ ID NO: 11] | only bound by autoantibodies when the microarrays were incubated with plasma samples obtained from mothers whose children had a diagnosis of ASD | 2 | 1 | 0 | 0 | 
VDITSWYDGVREELE [SEQ ID NO: 38] |  | 26 | 12 | 14 | 3 | 
VDLGSMDEEEEIATP [SEQ ID NO: 21] |  | 13 | 6 | 5 | 1 | 
VDVIEDKLKGEMMDL [SEQ ID NO: 3] |  | 15 | 7 | 10 | 2 | 
VLLGVDLGSMDEEEE [SEQ ID NO: 20] |  | 30 | 14 | 19 | 4 | 
VPRGLYDGPVCEVSV [SEQ ID NO: 60] |  | 17 | 8 | 5 | 1 | 
VVPEPGSSLLTSFEK [SEQ ID NO: 36] | only bound by autoantibodies when the microarrays were incubated with plasma samples obtained from mothers whose children had a diagnosis of ASD | 4 | 2 | 0 | 0 | 
full-length STIP1 polypeptide: full-length stress-induced phosphoprotein 1 (STIP1) polypeptide used in a comparison ELISA |  |  |  |  |  | absorbance value [2]: ~1.0
